Measured values published in patent publication US10479997B2, “Compositions and methods for diagnosis and treatment of prostate cancer” (NOVARTIS AG, priority 2014, dated 2019).

Key:
PRMT5 [1] = molecular target: PRMT5 (Homo sapiens, UniProt O14744); details: substrate E2-F-1; cited from earlier work
[2] = molecular target: T1, PRMT5/MEP50 enzyme complex (Homo sapiens, UniProt O14744); experiment: in vitro biochemical assay: PRMT5/MEP50 enzyme complex with SAM and purified AR LBD (with or without ERG ETS domain); details: AR LBD/PRMT5 and AR LBD/PRMT5/ETS reactions
T1 construct: purchased
T1 sequence (O14744 whole entry, the tested form may be a part): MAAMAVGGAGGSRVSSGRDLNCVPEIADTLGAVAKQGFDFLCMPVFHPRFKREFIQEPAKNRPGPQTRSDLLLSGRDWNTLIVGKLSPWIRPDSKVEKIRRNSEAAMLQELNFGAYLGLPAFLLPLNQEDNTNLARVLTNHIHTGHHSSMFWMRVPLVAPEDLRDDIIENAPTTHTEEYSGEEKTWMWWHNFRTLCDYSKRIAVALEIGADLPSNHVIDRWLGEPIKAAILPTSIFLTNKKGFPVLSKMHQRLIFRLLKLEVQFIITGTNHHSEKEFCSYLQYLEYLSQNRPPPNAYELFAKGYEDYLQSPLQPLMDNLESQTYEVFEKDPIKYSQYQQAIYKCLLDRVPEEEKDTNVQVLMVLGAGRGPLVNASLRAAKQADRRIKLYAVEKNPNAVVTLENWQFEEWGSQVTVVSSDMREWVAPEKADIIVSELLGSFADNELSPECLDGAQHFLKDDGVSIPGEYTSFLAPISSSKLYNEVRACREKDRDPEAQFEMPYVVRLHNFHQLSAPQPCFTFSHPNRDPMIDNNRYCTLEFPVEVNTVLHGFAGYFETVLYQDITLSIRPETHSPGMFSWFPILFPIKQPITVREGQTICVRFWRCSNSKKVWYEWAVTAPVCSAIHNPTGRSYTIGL
T1 sequence (Q9BQA1 whole entry partner, the tested form may be a part): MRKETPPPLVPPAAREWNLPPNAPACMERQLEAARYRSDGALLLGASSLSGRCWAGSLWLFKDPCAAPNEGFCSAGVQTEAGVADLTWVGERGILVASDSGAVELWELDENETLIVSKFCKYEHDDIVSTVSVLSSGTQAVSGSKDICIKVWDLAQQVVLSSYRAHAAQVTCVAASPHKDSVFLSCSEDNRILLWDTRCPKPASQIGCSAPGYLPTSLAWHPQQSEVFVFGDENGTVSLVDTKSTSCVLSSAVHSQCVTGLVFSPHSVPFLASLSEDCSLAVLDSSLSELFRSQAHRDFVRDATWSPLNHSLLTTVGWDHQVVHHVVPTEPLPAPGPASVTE
Experimental: To test whether ERG is a substrate of PRMT5, we used 22Rv1 cells to express and immunoprecipitate ERG in the presence and absence of PRMT5. Using a recently generated antibody specific for symmetric dimethyl arginine modification, we verified ERG arginine methylation levels and only observed a faint band which was not altered following PRMT5 knockdown (data not shown). To confirm these findings, we performed in vitro biochemical assays in which we incubated increasing amounts of commercial PRMT5/MEP50 enzyme complex with the methyl donor S-Adenosyl-Methionine (SAM) and either the pointed (PNT) domain or ETS domain of ERG as possible substrates of PRMT5. As a measure of PRMT5 catalytic activity and usage of the methyl donor SAM for substrate methylation, we evaluated and quantified by mass spectrometry the amount of S-Adenosyl-Homocysteine (SAH) produced (data not shown). […] To investigate whether the ligand binding domain (LBD) of AR is a direct substrate of PRMT5, we performed a series of in vitro biochemical assays in which we incubated the PRMT5/MEP50 enzyme complex with the methyl donor S-Adenosyl-Methionine (SAM) and purified AR LBD. […]

PRMT5 [3] = details: shRNAs disclosed in U.S. Patent Application No. 62/049,004; cited from earlier work

Sequence of PRMT5 (Homo sapiens, UniProt O14744) (O14744 whole entry, the tested form may be a part): as the sequence (O14744 whole entry, the tested form may be a part) above
Sequence of PRMT5 (Homo sapiens, UniProt O14744) (Q9BQA1 whole entry partner, the tested form may be a part): as the sequence (Q9BQA1 whole entry partner, the tested form may be a part) above

Compound | effectiveness of shRNA to PRMT5 (PRMT5 [3]) | also measured
Nc1ncnc2c1ncn2[C@@H]1O[C@H](C[C@@H](N)CC[C@H](N)C(=O)O)C(O)C1O (stereo in doubt) [Sinefungin, 5′-Deoxy-5′-(1,4-diamino-4-carboxybutyl)adenosine] |  | inhibition of PRMT5 activity (PRMT5 [1]): inhibits PRMT5 activity
O=C(Nc1ccc2c(O)cc(S(=O)(=O)O)cc2c1)Nc1ccc2c(O)cc(S(=O)(=O)O)cc2c1 [AMI-1] |  | AR mono-methylation levels ([2]; arginine mono-methyl antibody): completely blocked; SAH production ([2]; measured by mass spectrometry): completely blocked
sh4736: PRMT5 shRNA, target sequence GCGGATAAAGCTGTATGCTGT (SEQ ID NO: 11) (the letters are possibly those of the target site) | most effective | 
sh4737: PRMT5 shRNA, target sequence GCCAAGTGACCGTAGTCTCAT (SEQ ID NO: 15) | most effective | 
sh4738: PRMT5 shRNA, target sequence GCCATCCCAACAGAGATCCTA (SEQ ID NO: 8) (the letters are possibly those of the target site) | also effective | 
